Source: patent US6342225B1, “Pharmaceutical active conjugates” (Deutshces Wollforschungsinstitut, priority 1993, dated 2002)
Blank lines part the entries; values can stand above or below the substance they belong to.

Tests used:
[1] = system: glucose production (Ra) and glucose disposal (Rd); assay: glucose turnover during infusion with D-3H-3-glucose in anaesthetized beagles, euglycaemia maintained; assay type: in vivo; conditions: mean±SEM
[2] = system: hepatic glucose output and peripheral uptake; conditions: British Diabetic Association conference 1989; cited from earlier work
[3] = target: T1, thyroxine binding globulin (TBG) (Homo sapiens, UniProt P05543); assay: optical biosensor IAsys kinetic binding to immobilized TBG; conditions: control, 500 μg/ml
T1 sequence (P05543 21-415): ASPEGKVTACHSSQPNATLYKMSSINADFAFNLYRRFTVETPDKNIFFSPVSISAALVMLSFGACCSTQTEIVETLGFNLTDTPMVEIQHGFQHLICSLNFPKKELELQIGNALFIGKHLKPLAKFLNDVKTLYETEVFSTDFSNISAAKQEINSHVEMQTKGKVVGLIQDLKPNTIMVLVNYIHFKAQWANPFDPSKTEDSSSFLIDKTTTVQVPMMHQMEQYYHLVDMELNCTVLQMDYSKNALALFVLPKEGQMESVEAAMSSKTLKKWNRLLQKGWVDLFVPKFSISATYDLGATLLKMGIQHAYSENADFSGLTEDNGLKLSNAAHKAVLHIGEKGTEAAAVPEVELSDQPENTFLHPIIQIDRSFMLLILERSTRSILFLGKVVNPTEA

Substance: insulin
- AUC for Ra (glucose production), area between basal and subsequent values against time [1]: -431 ± 121 mg/kg
- AUC for Rd (glucose disposal), area between basal and subsequent values against time [1]: 1142 ± 160 mg/kg

Substance: proinsulin: the zymogen which is cleaved to form the active hormone insulin
- hepatoselectivity (effect on hepatic glucose output versus peripheral uptake and utilisation) [2]: shows this hepatoslectivity to a smaller degree

- association to immobilized TBG [3]: association cannot be observed
Substance: native insulin: native insulin injected at 500 μg/ml as control in the biosensor study
